Measurements: US6423689B1, “Peptidyl calcium channel blockers” (Warner-Lambert Company, priority 1997, dated 2002)

Target: T1, N-type Ca2+ channels in IMR-32 cells (Homo sapiens, UniProt Q00975)
T1 construct: host or cells: IMR-32 cells, differentiated with dibutyryl cAMP and bromodeoxyuridine
Assay: Inhibition of N-type calcium flux in IMR-32 cells (Indo-1 fluorescence, nitrendipine present)
Format: cell-based
Details: for IC50: IMR-32 cells, 5 μM nitrendipine, K+ depolarization; for inhibition at 1 µM / inhibition at 10 µM: IMR-32
How it was run: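 Differentiated IMR-32 cells (7–13 days) were loaded with 5 μM Indo-1 AM, preincubated with compound for 10 min at 30° C, and depolarized with KCl/CaCl2 stimulation solution, with 5 μM nitrendipine blocking L-channels. Peak-minus-basal 400/490 nm emission ratio was plotted against drug concentration, and IC50 came from four-parameter logistic fits.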

T1 sequence (Q00975 whole entry): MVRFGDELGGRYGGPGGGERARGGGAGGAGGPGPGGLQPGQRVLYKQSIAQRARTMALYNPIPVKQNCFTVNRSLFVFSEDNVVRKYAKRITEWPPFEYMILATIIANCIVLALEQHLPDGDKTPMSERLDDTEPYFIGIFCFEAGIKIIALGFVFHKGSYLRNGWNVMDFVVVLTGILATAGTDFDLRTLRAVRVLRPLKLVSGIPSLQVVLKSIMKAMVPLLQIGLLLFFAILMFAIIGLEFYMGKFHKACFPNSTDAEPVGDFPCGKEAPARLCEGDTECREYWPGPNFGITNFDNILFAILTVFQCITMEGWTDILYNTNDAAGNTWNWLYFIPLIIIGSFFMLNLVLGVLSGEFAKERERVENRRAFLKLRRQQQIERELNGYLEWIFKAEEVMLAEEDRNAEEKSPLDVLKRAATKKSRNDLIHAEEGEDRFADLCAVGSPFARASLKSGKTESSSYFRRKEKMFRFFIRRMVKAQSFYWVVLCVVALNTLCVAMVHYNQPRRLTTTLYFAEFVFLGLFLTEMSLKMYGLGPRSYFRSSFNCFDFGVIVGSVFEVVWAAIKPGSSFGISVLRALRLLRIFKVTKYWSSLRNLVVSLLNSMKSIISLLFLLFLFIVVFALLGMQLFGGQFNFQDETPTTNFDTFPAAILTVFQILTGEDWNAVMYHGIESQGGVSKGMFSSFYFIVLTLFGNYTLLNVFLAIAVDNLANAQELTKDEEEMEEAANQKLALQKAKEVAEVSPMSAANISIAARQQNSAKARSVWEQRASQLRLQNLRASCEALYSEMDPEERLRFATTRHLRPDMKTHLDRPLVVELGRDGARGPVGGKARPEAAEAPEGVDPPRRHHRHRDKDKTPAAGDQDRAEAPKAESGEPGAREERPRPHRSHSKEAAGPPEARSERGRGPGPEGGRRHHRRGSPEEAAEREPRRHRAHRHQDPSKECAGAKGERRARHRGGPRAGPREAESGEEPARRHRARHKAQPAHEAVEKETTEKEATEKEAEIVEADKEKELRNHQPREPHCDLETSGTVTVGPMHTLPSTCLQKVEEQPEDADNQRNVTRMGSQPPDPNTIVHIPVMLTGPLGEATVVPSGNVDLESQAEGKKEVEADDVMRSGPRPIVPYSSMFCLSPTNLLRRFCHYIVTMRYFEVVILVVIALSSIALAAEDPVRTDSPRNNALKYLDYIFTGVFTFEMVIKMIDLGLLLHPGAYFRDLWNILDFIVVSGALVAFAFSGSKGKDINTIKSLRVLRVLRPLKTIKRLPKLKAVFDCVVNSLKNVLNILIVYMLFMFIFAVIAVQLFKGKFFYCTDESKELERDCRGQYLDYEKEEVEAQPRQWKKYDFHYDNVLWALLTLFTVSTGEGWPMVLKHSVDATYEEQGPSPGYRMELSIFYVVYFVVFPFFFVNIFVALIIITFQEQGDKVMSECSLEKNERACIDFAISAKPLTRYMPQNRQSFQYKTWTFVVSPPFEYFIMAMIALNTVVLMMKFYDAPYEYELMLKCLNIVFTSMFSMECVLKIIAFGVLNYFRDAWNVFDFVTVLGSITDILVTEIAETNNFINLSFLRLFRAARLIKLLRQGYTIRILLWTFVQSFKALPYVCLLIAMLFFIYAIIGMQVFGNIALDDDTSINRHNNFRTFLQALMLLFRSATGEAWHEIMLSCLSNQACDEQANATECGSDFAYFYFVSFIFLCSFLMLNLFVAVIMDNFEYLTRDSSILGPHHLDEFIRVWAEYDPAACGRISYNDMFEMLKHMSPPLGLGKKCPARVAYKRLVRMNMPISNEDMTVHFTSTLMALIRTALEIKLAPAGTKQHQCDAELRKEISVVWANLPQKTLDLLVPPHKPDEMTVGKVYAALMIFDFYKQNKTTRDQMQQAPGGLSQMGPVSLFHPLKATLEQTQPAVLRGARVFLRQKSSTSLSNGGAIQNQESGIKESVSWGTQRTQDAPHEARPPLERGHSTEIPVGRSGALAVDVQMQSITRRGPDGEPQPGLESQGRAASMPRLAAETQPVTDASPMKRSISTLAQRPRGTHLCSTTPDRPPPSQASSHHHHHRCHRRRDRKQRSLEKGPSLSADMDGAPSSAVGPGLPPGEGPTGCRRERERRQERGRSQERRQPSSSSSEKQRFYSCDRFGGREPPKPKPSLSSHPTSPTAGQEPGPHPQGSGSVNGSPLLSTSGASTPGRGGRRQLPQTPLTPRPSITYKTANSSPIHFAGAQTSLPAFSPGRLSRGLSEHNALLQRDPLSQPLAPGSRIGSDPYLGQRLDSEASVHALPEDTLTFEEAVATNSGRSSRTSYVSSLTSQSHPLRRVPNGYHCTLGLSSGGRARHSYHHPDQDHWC
T1 sequence (P54289 25-956 partner limits assumed): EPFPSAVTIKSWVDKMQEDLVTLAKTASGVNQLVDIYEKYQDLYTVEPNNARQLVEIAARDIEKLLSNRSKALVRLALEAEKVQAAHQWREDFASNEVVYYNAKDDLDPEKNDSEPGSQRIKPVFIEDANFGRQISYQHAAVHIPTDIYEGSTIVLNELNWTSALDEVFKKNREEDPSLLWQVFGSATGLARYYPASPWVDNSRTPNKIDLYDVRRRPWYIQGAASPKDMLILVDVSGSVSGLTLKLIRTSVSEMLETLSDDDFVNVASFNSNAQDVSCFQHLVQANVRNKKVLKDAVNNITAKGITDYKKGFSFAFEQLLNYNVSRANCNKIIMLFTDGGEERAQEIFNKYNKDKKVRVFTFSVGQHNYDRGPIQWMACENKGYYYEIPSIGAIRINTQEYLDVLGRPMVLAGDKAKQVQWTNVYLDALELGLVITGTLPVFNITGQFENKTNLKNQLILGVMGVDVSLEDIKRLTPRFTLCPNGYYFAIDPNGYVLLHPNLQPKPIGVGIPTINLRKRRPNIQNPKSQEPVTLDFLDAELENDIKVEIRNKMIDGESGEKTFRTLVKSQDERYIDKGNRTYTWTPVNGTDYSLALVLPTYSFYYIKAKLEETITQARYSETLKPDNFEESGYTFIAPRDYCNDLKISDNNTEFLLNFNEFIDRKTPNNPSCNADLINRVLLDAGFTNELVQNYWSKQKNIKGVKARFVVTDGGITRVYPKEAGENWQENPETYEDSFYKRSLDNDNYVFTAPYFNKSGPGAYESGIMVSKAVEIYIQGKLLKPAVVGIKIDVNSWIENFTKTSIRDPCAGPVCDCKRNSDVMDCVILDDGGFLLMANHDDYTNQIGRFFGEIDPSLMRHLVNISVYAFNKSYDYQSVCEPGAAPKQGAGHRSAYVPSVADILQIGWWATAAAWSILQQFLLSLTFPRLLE
T1 sequence (P54289 957-1103 partner limits assumed): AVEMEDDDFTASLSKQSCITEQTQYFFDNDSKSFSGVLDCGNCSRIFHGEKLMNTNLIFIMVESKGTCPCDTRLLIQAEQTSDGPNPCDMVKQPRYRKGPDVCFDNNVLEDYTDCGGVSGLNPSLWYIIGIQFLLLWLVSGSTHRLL
T1 sequence (P54284 whole entry partner): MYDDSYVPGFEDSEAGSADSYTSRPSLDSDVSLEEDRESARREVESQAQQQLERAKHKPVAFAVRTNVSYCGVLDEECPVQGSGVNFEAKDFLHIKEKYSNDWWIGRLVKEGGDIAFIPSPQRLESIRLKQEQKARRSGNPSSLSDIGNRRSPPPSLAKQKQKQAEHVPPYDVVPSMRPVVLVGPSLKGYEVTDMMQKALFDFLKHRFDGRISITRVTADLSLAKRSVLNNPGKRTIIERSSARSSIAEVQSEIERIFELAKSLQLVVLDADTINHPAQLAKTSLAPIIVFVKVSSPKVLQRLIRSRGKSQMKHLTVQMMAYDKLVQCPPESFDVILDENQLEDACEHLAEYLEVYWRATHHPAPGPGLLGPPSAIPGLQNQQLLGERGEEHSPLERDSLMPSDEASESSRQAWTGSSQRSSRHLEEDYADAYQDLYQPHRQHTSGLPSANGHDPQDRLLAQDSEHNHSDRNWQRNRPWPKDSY

Row | IC50 | Inhibition of Calcium Flux in IMR-32 Cells % Inhibition at 1 μM | Inhibition of Calcium Flux in IMR-32 Cells % Inhibition at 10 μM | SMILES | other results
1 |  | 53% | 83% | CC(C)C[C@H](NC(=O)N1CCCCCC1)C(=O)N[C@@H](Cc1ccc(OCc2ccccc2)cc1)C(=O)NCc1cccc(I)c1 (relative stereo) [Example 241, [S-(R*,R*)]-Azepane-1-carboxylic acid {1-[2-(4-benzyloxy-phenyl)-1-(3-iodo-benzylcarbamoyl)-ethylcarbamoyl]-3-methyl-butyl}-amide] | 
2 | 4400 nM |  |  | Cc1cc(NC(=O)[C@H](Cc2ccc(OCc3ccccc3)cc2)NC(=O)[C@H](CC(C)C)NC(=O)N2CCCCCC2)c(C)cc1O [Example 267, [S-(R*,R*)]-Azepane-1-carboxylic acid {1-[2-(4-benzyloxy-phenyl)-1-(4-hydroxy-2,5-dimethyl-phenylcarbamoyl)-ethylcarbamoyl]-3-methyl-butyl}-amide] | 
3 | 1200 nM |  |  | CC(C)C[C@H](NC(=O)N1CCCCCC1)C(=O)N[C@@H](Cc1ccc(OCc2ccccc2)cc1)C(=O)N1CCN(C(c2ccccc2)c2ccccc2)CC1 [Example 270, [S-(R*,R*)]-Azepane-1-carboxylic acid {1-[2-(4-benzhydryl-piperazin-1-yl)-1-(4-benzyloxy-benzyl)-2-oxo-ethylcarbamoyl]-3-methyl-butyl}-amide] | 
4 | 4300 nM |  |  | CC(C)C[C@H](NC(=O)N1CCCCCC1)C(=O)N[C@@H](Cc1ccc(OCc2ccccc2)cc1)C(=O)NCCCO [Example 255, [S-(R*,R*)]-Azepane-1-carboxylic acid {1-[2-(4-benzyloxy-phenyl)-1-(3-hydroxy-propylcarbamoyl)-ethylcarbamoyl]-3-methyl-butyl}-amide] | 
5 | 4000 nM |  |  | CC(C)C[C@H](NC(=O)N1CCCCCC1)C(=O)N[C@@H](Cc1ccc(OCc2ccccc2)cc1)C(=O)NCCCN1CCN(C)CC1 [Example 187, [S-(R*,R*)]-Azepane-1-carboxylic acid (1-{2-(4-benzyloxy-phenyl)-1-[3-(4-methyl-piperazin-1-yl)-propylcarbamoyl]-ethylcarbamoyl}-3-methyl-butyl)-amide] | inhibition at 1 µM: 20%; inhibition at 10 µM: 77%
6 |  | 36% | 74% | COc1cc(NC(=O)[C@H](Cc2ccc(OCc3ccccc3)cc2)NC(=O)[C@H](CC(C)C)NC(=O)N2CCCCCC2)cc(OC)c1OC (relative stereo) [Example 223, [S-(R*,R*)]-Azepane-1-carboxylic acid {-1-[2-(4-benzyloxy-phenyl)-1-(3,4,5-trimethoxy-phenylcarbamoyl)-ethylcarbamoyl]-3-methyl-butyl}-amide] | 
7 | 5500 nM |  |  | CC(=O)N1CCN(C(=O)[C@H](Cc2ccc(OCc3ccccc3)cc2)NC(=O)[C@H](CC(C)C)NC(=O)N2CCCCCC2)CC1 [Example 204, [S-(R*,R*)]-Azepane-1-carboxylic acid {1-[2-(4-acetyl-piperazin-1-yl)-1-(4-benzyloxy-benzyl)-2-oxo-ethylcarbamoyl]-3-methyl-butyl}-amide] | inhibition at 1 µM: 13%; inhibition at 10 µM: 66%
8 | 700 nM |  |  | CC(C)CC(NC(=O)N1CCCCCC1)C(=O)NC(Cc1ccc(OCc2ccccc2)cc1)C(=O)NCCCN1CCCCC1C (stereo not shown) [Example 196, Azepane-1-carboxylic acid (1-{2-(4-benzyloxy-phenyl)-1-[3-(2-methyl-piperidin-1-yl)-propylcarbamoyl]-ethylcarbamoyl}-3-methyl-butyl)-amide] | 
9 | 2400 nM |  |  | CC(C)C[C@H](NC(=O)N1CCCCCC1)C(=O)N[C@@H](Cc1ccc(OCc2ccccc2)cc1)C(=O)NCC1CCCCC1 [Example 205, [S-(R*,R*)]-Azepane-1-carboxylic acid {1-[2-(4-benzyloxy-phenyl)-1-(cyclohexylmethyl-carbamoyl)-ethylcarbamoyl]-3-methyl-butyl}-amide] | inhibition at 1 µM: 36%; inhibition at 10 µM: 72%
10 | 2400 nM |  |  | CC(C)C[C@H](NC(=O)N1CCCCCC1)C(=O)N[C@@H](Cc1ccc(OCc2ccccc2)cc1)C(=O)N1CCc2ccccc2C1 [Example 201, [S-(R*,R*)]-Azepane-1-carboxylic acid {1-[1-(4-benzyloxy-benzyl)-2-(3,4-dihydro-1H-isoquinolin-2-yl)-2-oxo-ethylcarbamoyl]-3-methyl-butyl}-amide] | inhibition at 1 µM: 29%; inhibition at 10 µM: 81%
11 |  | 35% | 44% | CC(C)C[C@H](NC(=O)N1CCCCCC1)C(=O)N[C@@H](Cc1ccc(OCc2ccccc2)cc1)C(=O)Nc1ccc(N(C)C)cc1 (relative stereo) [Example 215, [S-(R*,R*)]-Azepane-1-carboxylic acid {1-[2-(4-benzyloxy-phenyl)-1-(4-dimethylamino-phenylcarbamoyl)-ethylcarbamoyl]-3-methyl-butyl}-amide] | 

Continued, compound first:

Row | SMILES | IC50 | Inhibition of Calcium Flux in IMR-32 Cells % Inhibition at 1 μM | Inhibition of Calcium Flux in IMR-32 Cells % Inhibition at 10 μM | other results
12 | CSCC[C@H](NC(=O)N1CCCCCC1)C(=O)N[C@@H](Cc1ccc(OCc2ccccc2)cc1)C(=O)NCCN1CCCCC1 [Example 154, [S-(R*,R*)]-Azepane-1-carboxylic acid {1-[2-(4-benzyloxy-phenyl)-1-(2-piperidin-1-ylethylcarbamoyl)-ethylcarbamoyl]-3-methylsulfanyl-propyl}-amide] | 9600 nM |  |  | 
13 | CC(C)C[C@H](NC(=O)N1CCCCCC1)C(=O)N[C@@H](Cc1ccc(OCc2cccc(N)c2)cc1)C(=O)OC(C)(C)C (relative stereo) [Example 29, [S-(R*,R*)]-3-[4-(3-Amino-benzyloxy)-phenyl]-2-{2-[(azepane-1-carbonyl)-amino]-4-methyl-pentanoylamino}-propionic acid tert-butyl ester] |  | 43% | 87% | 
14 | CC(C)C[C@H](NC(=O)N1CCCCCC1)C(=O)N[C@@H](Cc1ccc(OCc2c(Cl)cccc2Cl)cc1)C(=O)NC(C)(C)C (relative stereo) [Example 52, [S-(R*,R*)]-Azepane-1-carboxylic acid (1-{1-tert-butylcarbamoyl-2-[4-(2,6-dichloro-benzyloxy)-phenyl]-ethylcarbamoyl}-3-methyl-butyl)-amide] |  | 56% | 76% | 
15 | CCCCCCC(=O)N[C@@H](CC(C)C)C(=O)N[C@@H](Cc1ccc(OCc2ccccc2)cc1)C(=O)OC(C)(C)C (relative stereo) [Example 114, [S-(R*,R*)]-3-(4-Benzyloxy-phenyl)-2-(2-heptanoylamino-4-methyl-pentanoylamino)-propionic acid tert-butyl ester] |  |  | 66% | 
16 | Cc1nn(C)c(Cl)c1S(=O)(=O)N[C@@H](CC(C)C)C(=O)N[C@@H](Cc1ccc(OCc2ccccc2)cc1)C(=O)OC(C)(C)C (relative stereo) [Example 110, [S-(R*,R*)]-3-(4-Benzyloxy-phenyl)-2-[2-(5-chloro-1,3-dimethyl-1H-pyrazole-4-sulfonylamino)-4-methyl-pentanoylamino]-propionic acid tert-butyl ester] |  |  | 76% | 
17 | Cc1noc(C)c1S(=O)(=O)N[C@@H](CC(C)C)C(=O)N[C@@H](Cc1ccc(OCc2ccccc2)cc1)C(=O)OC(C)(C)C [Example 111, [S-(R*,R*)]-3-(4-Benzyloxy-phenyl)-2-[2-(3,5-dimethyl-isoxazole-4-sulfonylamino)-4-methyl-pentanoylamino]-propionic acid tert-butyl ester] | 1100 nM |  |  | inhibition at 1 µM: 50%; inhibition at 10 µM: 96%
18 | O=C(NCCN1CCCCC1)[C@H](Cc1ccc(OCc2ccccc2)cc1)NC(=O)[C@H](Cc1ccc(Br)cc1)NC(=O)N1CCCCCC1 [Example 157, [S-(R*,R*)]-Azepane-1-carboxylic acid [1-[2-(4-benzyloxy-phenyl)-1-(2-piperidin-1-ylethylcarbamoyl)-ethylcarbamoyl]-2-(4-bromo-phenyl)-ethyl]-amide] | 2300 nM |  |  | 
19 | CNC(=O)N[C@@H](CC(C)C)C(=O)N[C@@H](Cc1ccc(OCc2ccccc2)cc1)C(=O)OC(C)(C)C (relative stereo) [Example 88, [S-(R*,R*)]-3-(4-Benzyloxy-phenyl)-2-[4-methyl-2-(3-methyl-ureido)-pentanoylamino]-propionic acid tert-butyl ester] |  | 30% |  | 
20 | CC(C)C[C@H](NC(=O)Nc1ccc(C(F)(F)F)cc1)C(=O)N[C@@H](Cc1ccc(OCc2ccccc2)cc1)C(=O)OC(C)(C)C (relative stereo) [Example 70, [S-(R*,R*)]-3-(4-Benzyloxy-phenyl)-2-{4-methyl-2-[3-(4-trifluoromethyl-phenyl)-ureido]-pentanoylamino}-propionic acid tert-butyl ester] |  | 25% |  | 
21 | CC(C)C[C@H](NC(=O)Nc1cccc(Cl)c1Cl)C(=O)N[C@@H](Cc1ccc(OCc2ccccc2)cc1)C(=O)OC(C)(C)C (relative stereo) [Example 81, [S-(R*,R*)]-3-(4-Benzyloxy-phenyl)-2-{2-[3-(2,3-dichloro-phenyl)-ureido]-4-methyl-pentanoylamino}-propionic acid tert-butyl ester] |  | 32% |  | 
22 | Cc1cc(C)cc(NC(=O)N[C@@H](CC(C)C)C(=O)N[C@@H](Cc2ccc(OCc3ccccc3)cc2)C(=O)OC(C)(C)C)c1 (relative stereo) [Example 72, [S-(R*,R*)]-3-(4-Benzyloxy-phenyl)-2-{2-[3-(3,5-dimethyl-phenyl)-ureido]-4-methyl-pentanoylamino}-propionic acid tert-butyl ester] |  | 31% |  | 
23 | CC(C)C[C@H](NC(=O)N1CCCCCC1)C(=O)N[C@@H](Cc1ccc(OCc2ccccc2)cc1)C(=O)N1CCN(C)CC1 [Example 176, [S-(R*,R*)]-Azepane-1-carboxylic acid {1-[1-(4-benzyloxy-benzyl)-2-(4-methyl-piperazin-1-yl)-2-oxo-ethylcarbamoyl]-3-methyl-butyl}-amide] | 1400 nM |  |  | inhibition at 1 µM: 38%; inhibition at 10 µM: 86%
